Entries after “also recorded” stand apart in the source; their conditions may differ. Like-named read-outs stand apart in the source and are kept apart here.
Tests used:
[1] = test system: tumours or human tumour xenografts; settings: preclinical studies; cited from earlier work
[2] = test system: human tumours; settings: Phase I clinical trials; well-tolerated doses; cited from earlier work
[3] = DMXAA plasma pharmacokinetic studies (HPLC assay); format: in vivo, mice
Experimental: (§1) DMXAA was synthesized as the sodium salt (Rewcastle et al (1990) Journal of National Cancer Institute 82:528-529). DMXAA sodium salt was dissolved in sterile water and 25 mg/kg in a volume of 0.1 ml per 10 g body weight was injected intraperitoneally (i.p.) into mice.
Diclofenac (Sigma) was dissolved in dimethylsulphoxide, and was injected i.p. into mice in a volume of 25 μl per 10 g body weight. The required dose of diclofenac was injected concurrently with DMXAA.

[4] = test system: colon 38 tumours; assay: Tumour growth delay assay; format: in vivo, C57B1/6 mice
Experimental: C57B1/6 mice from the Animal Resource Unit, University of Auckland, were bred and housed under conditions of constant temperature and humidity, with sterile bedding and food, according to institutional ethical guidelines. All mice were aged between 8 and 12 weeks.
as §1
Diclofenac (Sigma) was dissolved in dimethylsulphoxide, and was injected i.p. into mice in a volume of 25 μl per 10 g body weight. […]
Colon 38 tumour fragments (˜1 mm^3) were implanted subcutaneously (s.c.) in the left flank of anaesthetized (sodium pentobarbital, 81 mg/kg) mice. […] Tumour-bearing mice were treated with drugs according to the administration schedule described before, and the tumours measured using calipers, three times weekly thereafter. Tumour volumes were calculated as 0.52a^2b, where a and b are the minor and major axes of the tumour, respectively. The arithmetic means were calculated for each time point, counting cured tumours as zero volume. The growth delay was determined as the difference in the number of days required for the control versus treated tumours to increase four times in volume. […]

[5] = test system: glucoronidation of DMXAA; settings: diclofenac 100 μM; mouse and human microsomes; cited from earlier work
[6] = test system: 6-methylhydroxylation of DMXAA; settings: diclofenac 100 μM; mouse and human microsomes; cited from earlier work
[7] = cited from earlier work

Structure (SMILES)	tumour blood flow [1]	tumour blood flow (dynamic MRI) [2]	AUC ([3]; mouse, plasma, ip, 0-6 hours, DMXAA 25 mg/kg i.p. alone or with diclofenac 5 mg/kg) [µM·h]	half-life ([3]; mouse, plasma, ip, DMXAA 25 mg/kg i.p. alone or with diclofenac 5 mg/kg) [h]	mice cured ([4]; s.c. colon 38 tumours, DMXAA 25 mg/kg alone or with diclofenac 5 mg/kg i.p., 5 mice per group)	inhibition of glucoronidation of DMXAA [5] [%]	inhibition of 6-methylhydroxylation of DMXAA [6] [%]	increase in the plasma DMXAA AUC ([7]; diclofenac 100 mg/kg i.p., female mice) [%]	increase in DMXAA T1/2 ([7]; diclofenac 100 mg/kg i.p., male and female mice, P<0.05)	increase in the plasma DMXAA AUC ([7]; diclofenac 100 mg/kg i.p., male mice) [%]	increase in the plasma concentration and AUC of DMXAA ([7]; diclofenac 100 mg/kg, mice)	effect on DMXAA plasma concentrations ([3]; 3 hours after administration, DMXAA 25 mg/kg with diclofenac doses below 100 mg/kg)	effect on the growth of colon 38 tumours ([4]; diclofenac alone 5 mg/kg i.p.)
Cc1ccc2c(=O)c3cccc(CC(=O)O)c3oc2c1C [DMXAA, 5,6-dimethylxanthenone-4-acetic acid]	prolonged inhibition of tumour blood flow	significant reduction in tumour blood flow	1330	2.7	none of the mice were cured; also recorded: no cure								
O=C(O)Cc1ccccc1Nc1c(Cl)cccc1Cl [diclofenac, 2-[(2,6-dichlorophenyl)amino]benzeneacetic acid]						> 70	> 54	31	threefold increase	24	24-31%	no significant effect	no significant effect

From patent US7462642B2, “Anti-cancer combinations” (Cancer Research Technology Limited, priority 2003, dated 2008)
